Results: patent US20010027175A1, “Use of certain drugs for treating nerve root injury” (priority 1998, published 2001)

Experiments:
[1] = test system: nucleus pulposus-induced reduction of nerve root conduction velocity (sacrococcygeal cauda equina); test: Series-2: nerve root conduction velocity three days after autologous nucleus pulposus application to the cauda equina; assay type: in vivo; conditions: pig, mean ± SD
Protocol: Series-2: Nucleus pulposus was harvested from lumbar discs and applied to the sacrococcygeal cauda equina in 13 pigs autologously. […] Three days after the application the nerve root conduction velocity was determined over the application zone by local electrical stimulation.
Thirteen pigs, (body weight 25-30 kg) received an intramuscular injection of 20 mg/kg body weight of Ketala (ketamine 50 mg/ml, Parke-Davis, Morris Plains, N.J.) and an intravenous injection of 4 mg/kg body weight of Hypnodil^R (methomidate chloride 50 mg/ml, AB Leo, Helsingborg, Sweden) and 0.I mg/kg body weight of Stresnil^R (azaperon 2 mg/ml, Janssen Pharmaceutica, Beerse, Belgium). […]
Three days after the application, the pigs were reanaesthetized by an intramuscular injection of 20 mg/kg body weight of Ketalar^R and an intravenous injection of 35 mg/kg body weight of Pentothal^R (Thiopental sodium, Abbott lab, Chicago, Ill.). […] Local tissue temperature was continuously monitored and maintained at 37.5-38.0° C. by means of a heating lamp. […]
The person performing the neurophysiologic analyses was unaware of the experimental protocol for the individual animal, and after finishing the complete study the data were arranged in the three experimental groups and statistical differences between the groups were assessed by Student's t-test. […]

[2] = test system: nucleus pulposus-related effects on adjacent nerve roots; conditions: literature refs 38, 2, 3, 69; cited from earlier work
[3] = test system: nucleus pulposus-induced reduction of nerve root conduction velocity (sacrococcygeal cauda equina); test: Series-3: nerve root conduction velocity seven days after autologous nucleus pulposus application to the cauda equina; assay type: in vivo; conditions: pig; for NCV (m/s ± SD): seven days after nucleus pulposus application, mean ± SD; for block of nucleus pulposus induced nerve injury (in words): seven days, systemic treatment
Protocol: Series-3: Thirteen pigs had autologous nucleus pulposus placed onto their sacrococcygeal cauda equina similar to series-2. Five pigs (bodyweight 25 kg) received Remicade^R (infliximab) 100 mg i.v. preoperatively, and 8 pigs received EnbrelR (etanercept) 12.5 mg s.c. preoperatively and additionally 12.5 mg s.c. three days after the operation. Seven days after the nucleus pulposus-application the nerve root conduction velocity was determined over the application zone by local electrical stimulation according to series-2. Five pigs (bodyweight 25 kg) received the human/murine monoclonal antibody Remicade^R (infliximab, […]) 100 mg i.v. preoperatively, and 8 pigs received Enbrel^R (etanercept, […]) 12.5 mg s.c. preoperatively and additionally 12.5 mg s.c. three days after the operation. Seven days after the nucleus pulposus-application the nerve root conduction velocity was determined over the application zone by local electrical stimulation according to series-2. […] No non-treated animals were included in the series-3 due to the pre-existing knowledge of nerve conduction velocity after seven days of either nucleus pulposus or fat (control) application. The statistical difference between the groups, infliximab, and etanercept, nucleus pulposus without treatment (positive control from previous data) and application of retroperitoneal fat (negative control from previous data) was assessed by using ANOVA and Fisher's PLSD at 5%.

[4] = target: inducible nitrogen oxide synthetase (Homo sapiens, UniProt P35228); conditions: by inhibiting inducible nitrogen oxide synthetase; cited from earlier work
Sequence of inducible nitrogen oxide synthetase (P35228 whole entry): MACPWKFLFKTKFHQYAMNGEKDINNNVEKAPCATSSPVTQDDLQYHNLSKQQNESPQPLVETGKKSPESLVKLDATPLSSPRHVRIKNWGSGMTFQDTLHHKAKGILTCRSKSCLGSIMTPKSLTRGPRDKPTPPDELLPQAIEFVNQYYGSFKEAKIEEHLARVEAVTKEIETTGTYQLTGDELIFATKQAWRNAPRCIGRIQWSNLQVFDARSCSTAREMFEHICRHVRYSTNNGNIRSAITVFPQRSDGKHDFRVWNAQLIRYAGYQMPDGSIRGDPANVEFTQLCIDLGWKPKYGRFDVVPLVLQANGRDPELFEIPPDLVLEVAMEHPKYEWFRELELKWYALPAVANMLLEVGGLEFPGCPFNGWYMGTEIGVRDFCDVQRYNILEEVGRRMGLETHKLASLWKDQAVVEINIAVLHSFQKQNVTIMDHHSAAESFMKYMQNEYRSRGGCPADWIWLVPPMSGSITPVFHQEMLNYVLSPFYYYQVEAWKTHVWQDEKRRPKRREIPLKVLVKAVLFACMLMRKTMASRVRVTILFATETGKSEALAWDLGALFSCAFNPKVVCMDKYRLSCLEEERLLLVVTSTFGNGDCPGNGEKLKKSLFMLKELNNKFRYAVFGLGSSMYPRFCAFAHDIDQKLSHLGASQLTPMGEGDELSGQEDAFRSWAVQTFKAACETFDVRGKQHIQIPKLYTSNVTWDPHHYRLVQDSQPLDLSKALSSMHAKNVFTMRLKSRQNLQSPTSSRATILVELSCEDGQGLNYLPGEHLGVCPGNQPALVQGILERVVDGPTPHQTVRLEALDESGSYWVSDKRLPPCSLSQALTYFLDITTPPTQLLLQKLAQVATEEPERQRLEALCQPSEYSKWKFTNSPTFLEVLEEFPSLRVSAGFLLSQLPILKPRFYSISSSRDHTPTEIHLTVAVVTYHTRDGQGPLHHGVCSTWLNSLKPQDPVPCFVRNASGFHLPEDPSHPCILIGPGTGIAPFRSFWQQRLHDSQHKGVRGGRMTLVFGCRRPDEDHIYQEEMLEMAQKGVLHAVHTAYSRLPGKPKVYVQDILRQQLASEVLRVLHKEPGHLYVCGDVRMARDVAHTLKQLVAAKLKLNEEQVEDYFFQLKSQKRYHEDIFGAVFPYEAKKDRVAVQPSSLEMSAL

C[C@H]1c2cccc(O)c2C(=O)C2=C(O)[C@]3(O)C(=O)C(C(N)=O)=C(O)[C@@H](N(C)C)[C@@H]3[C@@H](O)[C@@H]21 [Doxycycline, doxycycline]
NCV (m/s ± SD) [1]: 76 ± 9 m/s

CCN(CC)CC(=O)Nc1c(C)cccc1C [lidocaine]
block of nucleus pulposus-related effects (in words) [2]: slightly less efficiently

infliximab [Remicade^R]
NCV (m/s ± SD) [3]: 79 ± 15 m/s
block of nucleus pulposus induced nerve injury (in words) [3]: blocked the nucleus pulposus induced nerve injury efficiently

cyclosporin A
block of nucleus pulposus-related effects (in words) [2]: blocked efficiently

N=C(N)NN [Aminoguanidine]
inhibition of release of nitrogen oxide (NO) at nerve root injuries (in words) [4]: inhibit the release of nitrogen oxide (NO)

etanercept [Embrel^R]
NCV (m/s ± SD) [3]: 78 ± 14 m/s
block of nucleus pulposus induced nerve injury (in words) [3]: blocked the nucleus pulposus induced nerve injury efficiently

COc1ccc2c(c1)c(CC(=O)O)c(C)n2C(=O)c1ccc(Cl)cc1 [indomethacin]
block of nucleus pulposus-related effects (in words) [2]: slightly less efficiently
